Measured values as given in patent US7875600B2, “Pyrimidine compounds as purine receptor antagonist” (Vernalis (R&D) Limited, priority 2004, dated 2011).
pKi: −log10 of the molar value.

Tests used:
[1] = tested on: haloperidol-induced deficits in locomotor activity in mice; experiment: Haloperidol-induced hypolocomotion model; assay type: in vivo; conditions: oral, dose of 30 mg/kg
Description: Haloperidol-Induced Hypolocomotion Model
This approach is also considered a valid method for screening drugs with potential antiparkinsonian effects. Thus, the ability of novel adenosine antagonists to block haloperidol-induced deficits in locomotor activity in mice can be used to assess both in vivo and potential antiparkinsonian efficacy.
Female TO mice (25-30 g) obtained from Harlan, UK, are used for all experiments. Animals are housed in groups of 8 [cage size—40 (width)×40 (length)×20 (height) cm] under 12 h light/dark cycle (lights on 08:00 hr), in a temperature (20±2° C.) and humidity (55±15%) controlled environment. Animals have free access to food and water, and are allowed at least 3 days to acclimatize after delivery before experimental use.
Liquid injectable haloperidol (1 ml Serenance ampoules from Baker Norton, Harlow, Essex, each containing haloperidol BP 5 mg) are diluted to a final concentration of 0.02 mg/ml using saline. Test compounds are typically prepared as aqueous suspensions in 1% methyl cellulose. All compounds are administered orally in a volume of 10 ml/kg.
1.5 h before testing, mice are administered 0.2 mg/kg haloperidol, a dose that reduces baseline locomotor activity by at least 50%. […] Horizontal locomotor activity is determined by placing the cages within a frame containing a 4×7 array of photocells linked to a computer, which tabulates beam breaks. […]

[2] = target: human adenosine A2A receptors (Homo sapiens, UniProt P29274); experiment: Binding affinities at hA2A receptors, displacement of [3H]-CGS 21680; conditions: human adenosine A2A receptor, [3H]-CGS 21680 displacement
Description: Adenosine Receptor Binding Binding Affinities at hA2A Receptors
The compounds were examined in an assay measuring in vitro binding to human adenosine A2A receptors by determining the displacement of the adenosine A2A receptor selective radioligand [^3H]-CGS 21680 using standard techniques.

cataleptic responses = conditions: cited from earlier work
Parkinsonian patients = conditions: 15 Parkinsonian patients, up to 12 weeks, 150 mg/day oral; cited from earlier work

human adenosine A2A receptors, sequence (P29274 whole entry): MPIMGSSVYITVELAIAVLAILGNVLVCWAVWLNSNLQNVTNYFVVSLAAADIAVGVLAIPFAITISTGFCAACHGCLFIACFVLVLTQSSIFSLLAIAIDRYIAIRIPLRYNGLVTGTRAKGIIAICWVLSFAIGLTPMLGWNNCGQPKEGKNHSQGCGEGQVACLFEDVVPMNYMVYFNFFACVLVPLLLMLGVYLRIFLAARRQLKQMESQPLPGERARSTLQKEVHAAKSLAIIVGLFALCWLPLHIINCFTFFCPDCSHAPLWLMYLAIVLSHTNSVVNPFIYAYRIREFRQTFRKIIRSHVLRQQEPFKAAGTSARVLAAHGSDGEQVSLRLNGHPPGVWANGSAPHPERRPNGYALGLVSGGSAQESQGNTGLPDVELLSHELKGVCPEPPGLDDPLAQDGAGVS

Row | SMILES | melting point | also measured
1 | Nc1nc(C(=O)NCc2ccccc2F)cc(-c2ccco2)n1 [Example 1, 2-Amino-N-(2-fluorobenzyl)-6-(2-furyl)pyrimidine-4-carboxamide] | – | activity in haloperidol-induced hypolocomotion model [1]: orally active; pKi [2]: > 7.30
2 | Nc1nc(C(=O)NC2Cc3ccccc3C2)cc(-c2ccco2)n1 [Example 90, 2-Amino-6-(2-furyl)-N-(2-indanyl)pyrimidine-4-carboxamide] | 220 to 221.3 °C | –
3 | Nc1nc(C(=O)NCc2ncc[nH]2)cc(-c2ccco2)n1 [Example 91, 2-Amino-6-(2-furyl)-N-(1H-imidazol-2-ylmethyl)pyrimidine-4-carboxamide] | > 200 °C (dec.) | –
4 | CCCn1ccnc1CNC(=O)c1cc(-c2ccco2)nc(N)n1 [Example 92, 2-Amino-6-(2-furyl)-N-(1-n-propyl-1H-imidazol-2-ylmethyl)pyrimidine-4-carboxamide] | 270.7 to 271.5 °C | –
5 | Nc1nc(C(=O)NCCCn2ccnc2)cc(-c2ccco2)n1 [Example 96, 2-Amino-6-(2-furyl)-N-(3-(1H-imidazol-1-yl)propyl)pyrimidine-4-carboxamide] | 248.2 to 249 °C | –
6 | CCCn1c(=O)c2c(nc(/C=C/c3ccc(OC)c(OC)c3)n2C)n(CCC)c1=O [KF 17837, (E)-8-(3,4-dimethoxystyryl)-1,3-dipropyl-7-methylxanthine] | – | anticataleptic effects of a subthreshold dose of L-DOPA plus benserazide (cataleptic responses; in vivo): potentiated; catalepsy induced by haloperidol and reserpine (cataleptic responses; in vivo): reduced; cataleptic responses induced by intracerebroventricular CGS 21680 (cataleptic responses; oral administration): significantly ameliorated
7 | Cn1c(=O)c2[nH]cnc2n(C)c1=O [theophylline, 1,3-dimethylxanthine] | – | mean objective disability scores (Parkinsonian patients): significant improvements

Now from value to compound, other results behind:

Row | melting point | SMILES | also measured
8 | 191.9 to 192 °C | Cc1cnc(CNC(=O)c2cc(-c3ccco3)nc(N)n2)cn1 [Example 88, 2-Amino-6-(2-furyl)-N-(5-methylpyrazin-2-ylmethyl)pyrimidine-4-carboxamide] | –
9 | 178.1 to 179.3 °C | Nc1nc(C(=O)NCc2cccc(Br)n2)cc(-c2ccco2)n1 [Example 94, 2-Amino-N-(6-bromopyridin-2-ylmethyl)-6-(2-furyl)pyrimidine-4-carboxamide] | –
10 | 263.1 to 264.9 °C | CCn1ccnc1CNC(=O)c1cc(-c2ccco2)nc(N)n1 [Example 98, 2-Amino-N-(1-ethyl-1H-imidazol-2-ylmethyl)-6-(2-furyl)pyrimidine-4-carboxamide] | –
11 | 203 to 203.1 °C | Cc1ccc(CNC(=O)c2cc(-c3ccco3)nc(N)n2)c(N(C)C)n1 [Example 102, 2-Amino-N-(2-dimethylamino-6-methylpyridin-3-ylmethyl)-6-(2-furyl)pyrimidine-4-carboxamide] | –
12 | 144.1 to 144.3 °C | CCCc1cccc(CNC(=O)c2cc(-c3nccs3)nc(N)n2)n1 [Example 109, 2-Amino-N-(6-n-propylpyridin-2-ylmethyl)-6-(thiazol-2-yl)pyrimidine-4-carboxamide] | –
13 | 168.6 to 168.9 °C | COCc1cccc(CNC(=O)c2nc(N)nc(-c3ccc(C)o3)c2Cl)n1 [Example 116, 2-Amino-5-chloro-N-(6-methoxymethylpyridin-2-ylmethyl)-6-(5-methyl-2-furyl)pyrimidine-4-carboxamide] | –
14 | 193.5 to 195.1 °C | COCc1cccc(CNC(=O)c2nc(N)nc(-c3ccc(C)o3)c2Br)n1 [Example 117, 2-Amino-5-bromo-N-(6-methoxymethylpyridin-2-ylmethyl)-6-(5-methyl-2-furyl)pyrimidine-4-carboxamide] | –
